Measured values taken from patent US11834450B2, “Compounds having ((3-nitrophenyl)sulfonyl)acetamide as BCL-2 inhibitors” (Eil Therapeutics, Inc., priority 2021, dated 2023).
Like-named read-outs stand apart in the source and are kept apart here.

Key:
RS4-11 cells = assay: Cell viability assay RS4-11 (CellTiter-Glo); type: cell-based; conditions: Homo sapiens, read-out: RS4-11 (CC50 code)
Description: (§1) Assay Condition: Used culture medium for HEK293-DMEM (PanEco, Cat #C420), for the rest of the cell lines—culture medium RPMI-1640 (PanEco, Cat #C363).
(§2) Assay Procedure: Compounds were prepared as 200× stocks with serial dilution in 100% DMSO with a final concentration of 1×. Dispersed 40 μl in 384-well plates at a concentration of 2000 cells per well for HEK293 and at a concentration of 4000 cells per well for the rest of the cell lines using a robotic station Biomek (Beckman). Before adding compounds, the cells were incubated at 37° C. (HEK293 were incubated for a day before adding compounds).
(§3) A dilution plate was prepared by pouring 78 μl of the appropriate culture medium using a robotic station Biomek (Beckman). Sequentially, using a robotic station, 2 μl of substances were taken and added to 78 μl of culture medium (dilution of compounds 40×). Took from there 10 μl and added to the plates to the cells (dilution of compounds 5×). The plates were incubated for 3 days at a temperature 37° C. After 3 days, 10 μl of CellTiter-Glo (Promega) was added to the cells and the luminescence was measured.

MOLT-4 cells = assay: Cell viability assay MOLT-4 (CellTiter-Glo); type: cell-based; conditions: Homo sapiens, read-out: MOLT-4 (CC50 code)
Description: as §1, §2, §3

[1] = Cell viability assay HEK293 (CellTiter-Glo); type: cell-based; conditions: human, HEK293 cells, read-out: HEK293 (CC50 code)
Description: as §1, §2, §3

[2] = tested on: caspase-3 and -7 activities in RS4-11 cells; assay: Cas-3/7 activation (Caspase-Glo 3/7) in RS4-11 cells; type: cell-based; conditions: Homo sapiens, 3.5 h at 37° C. and 30 min at r.t., read-out: Cas-3/7 (EC50 code)
Description: Assay Principle: The Caspase-Glo 3/7 Assay is homogeneous, luminescent assay that measures caspase-3 and -7 activities. The assay provides a luminogenic caspase-3/7 substrate, which contains the tetrapeptide sequence DEVD, in a reagent optimized for caspase activity.
Assay Procedure: Incubate RS4-11 cells with varying concentrations of test compounds for 3.5 h in a humidified incubator at 37° C. and 5% CO2 and 30 min at r.t. Add 15 μl Caspase-Glo reagent to each well and incubate the plate for 30 min at r.t. Read on ClarioStar Plus instrument.
Materials: Promega Caspase-Glo (Promega, #8212); Frozen RS4-11 cells; 384-well white plate (Corning, #3570).
Instrumentation: ClarioStar Plus; Biomek FX for liquid handling (Beckman Coulter).

BCL-2 = biological target: T1, BCL-2 (Homo sapiens, UniProt P10415); assay: BCL-2 TR-FRET Assay (primary PPI inhibition); type: binding; conditions: 60 min incubation; read-out: BCL2 (IC50 code, BCL-2 TR-FRET)
T1 construct: purchased BPS Bioscience #50222

BCL-XL = biological target: T2, BCL-XL (Homo sapiens, UniProt Q07817); assay: BCL-XL TR-FRET Assay (primary PPI inhibition); type: binding; conditions: 60 min incubation; read-out: BCLxL (IC50 code, BCL-XL TR-FRET)
T2 construct: purchased BPS Bioscience #50223
Description: BCL-XL TR-FRET Assay (BPS Bioscience, #50223) Assay Condition: The following assay concentrations and times were used: 10.5 ng BCL-XL, 5 ul of 1:100 anti-His Tb-labeled donor, 5 ul of 1:100 Dye-labeled acceptor, 5 ul of 1:80 BCL-XL Peptide Ligand, and 2 ul of test compound, with 60 min incubation time. The results of the assay were read using a Clariostar (BMG Labtech) plate reader with the following parameters: TR FRET, 340 ex/620 and 665 em; 60 μsec Delay; and 500 μsec integration.

[3] = 72 h, RS4-11 cells, 3 days, CellTiter-Glo
[4] = 72 h, MOLT-4 cells, 3 days, CellTiter-Glo

T2 sequence (Q07817 whole entry): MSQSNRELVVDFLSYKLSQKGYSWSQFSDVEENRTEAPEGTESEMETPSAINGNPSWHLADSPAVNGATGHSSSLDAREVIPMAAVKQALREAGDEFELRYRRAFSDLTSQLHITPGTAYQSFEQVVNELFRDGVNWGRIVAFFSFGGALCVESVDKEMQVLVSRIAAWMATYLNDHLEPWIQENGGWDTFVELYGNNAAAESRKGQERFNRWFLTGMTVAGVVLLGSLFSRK
T1 sequence (P10415 whole entry): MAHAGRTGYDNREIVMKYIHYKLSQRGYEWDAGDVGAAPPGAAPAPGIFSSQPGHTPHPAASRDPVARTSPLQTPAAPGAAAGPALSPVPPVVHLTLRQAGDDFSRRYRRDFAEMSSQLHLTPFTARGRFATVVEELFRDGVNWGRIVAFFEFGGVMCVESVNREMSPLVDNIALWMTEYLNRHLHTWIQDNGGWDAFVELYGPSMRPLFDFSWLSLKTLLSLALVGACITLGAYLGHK

SMILES	EC50 [2]	IC50 (BCL-2)	IC50 (BCL-XL)	CC50 (RS4-11 cells; [3])	CC50 (MOLT-4 cells; [4])	CC50 at 3 days [1]	CC50 (RS4-11 cells; RS4-11, 72 h)	CC50 (MOLT-4 cells; MOLT-4, 72 h)
O=C(NS(=O)(=O)c1ccc(NCC2CCOCC2)c([N+](=O)[O-])c1)c1ccc(N2CCC(CN3CC4(CCCC4)C3c3ccccc3)CC2)cc1Oc1cnc2[nH]ccc2c1 (stereo not drawn) [Compound 27, N-[3-nitro-4-(tetrahydropyran-4-ylmethylamino)phenyl]sulfonyl-4-[4-[(3-phenyl-2-azaspiro[3.4]octan-2-yl)methyl]-1-piperidyl]-2-(1H-pyrrolo[2,3-b]pyridin-5-yloxy)benzamide]		> 50 nM	2000 to 4000 nM			> 25000 nM	> 200 nM	2000 to 10000 nM
O=C(NS(=O)(=O)c1ccc(NCC2CCOCC2)c([N+](=O)[O-])c1)c1ccc(N2CCC(CN3C(=O)C4(CCCC4)C3c3ccc(Cl)cc3)CC2)cc1Oc1cnc2[nH]ccc2c1 (stereo not drawn) [Compound 1, 4-[4-[[1-(4-chlorophenyl)-3-oxo-2-azaspiro[3.4]octan-2-yl]methyl]-1-piperidyl]-N-[3-nitro-4-(tetrahydropyran-4-ylmethylamino)phenyl]sulfonyl-2-(1H-pyrrolo[2,3-b]pyridin-5-yloxy)benzamide]		10 to 50 nM	> 4000 nM	> 200 nM	2000 to 10000 nM	> 25000 nM		
O=C(NS(=O)(=O)c1ccc(NCC2CCOCC2)c([N+](=O)[O-])c1)c1ccc(N2CCN(C(c3ccc(F)cc3)c3ccc(F)cc3)CC2)cc1Oc1ccc2[nH]ccc2c1 [Compound 16, 4-[4-[bis(4-fluorophenyl)methyl]piperazin-1-yl]-2-(1H-indol-5-yloxy)-N-[3-nitro-4-(tetrahydropyran-4-ylmethylamino)phenyl]sulfonyl-benzamide]		> 50 nM	> 4000 nM	> 200 nM	> 10000 nM	> 25000 nM		
Cn1ncc(Oc2cc(N3CCC(CN4CCCCC4c4ccc(Cl)cc4)CC3)ccc2C(=O)NS(=O)(=O)c2ccc(NCC3CCOCC3)c([N+](=O)[O-])c2)cc1=O (stereo not drawn) [Compound 65, 4-[4-[[2-(4-chlorophenyl)-1-piperidyl]methyl]-1-piperidyl]-2-(1-methyl-6-oxo-pyridazin-4-yl)oxy-N-[3-nitro-4-(tetrahydropyran-4-ylmethylamino)phenyl]sulfonyl-benzamide]		> 50 nM	> 4000 nM	> 200 nM	> 10000 nM	10000 to 25000 nM		
O=C(NS(=O)(=O)c1ccc(NCC2CCOCC2)c([N+](=O)[O-])c1)c1ccc(N2CCC(CN3CCCCC3c3ccc(Cl)cc3)CC2)cc1Oc1cncc(CO)c1 (stereo not drawn) [Compound 64, 4-[4-[[2-(4-chlorophenyl)-1-piperidyl]methyl]-1-piperidyl]-2-[[5-(hydroxymethyl)-3-pyridyl]oxy]-N-[3-nitro-4-(tetrahydropyran-4-ylmethylamino)phenyl]sulfonyl-benzamide]		> 50 nM	> 4000 nM	> 200 nM	> 10000 nM	10000 to 25000 nM		

More lines, main results first:

EC50 [2]	IC50 (BCL-2)	IC50 (BCL-XL)	SMILES	CC50 (RS4-11 cells; [3])	CC50 (MOLT-4 cells; [4])	CC50 at 3 days [1]	CC50 (RS4-11 cells; RS4-11, 72 h)	CC50 (MOLT-4 cells; MOLT-4, 72 h)
> 250 nM			CC(C)C(=O)N1C[C@H](CN2CCN(c3ccc(C(=O)NS(=O)(=O)c4ccc(NCC5CCOCC5)c([N+](=O)[O-])c4)c(Oc4cnc5[nH]ccc5c4)c3)CC2)[C@@H](c2ccc(Cl)cc2)C1 [Compound 30, 4-[4-[[(3S,4S)-4-(4-chlorophenyl)-1-(2-methylpropanoyl)pyrrolidin-3-yl]methyl]piperazin-1-yl]-N-[3-nitro-4-(tetrahydropyran-4-ylmethylamino)phenyl]sulfonyl-2-(1H-pyrrolo[2,3-b]pyridin-5-yloxy)benzamide]	> 200 nM	2000 to 10000 nM	> 25000 nM		
> 250 nM			O=C(NS(=O)(=O)c1ccc(NCC2CCOCC2)c([N+](=O)[O-])c1)c1ccc(N2CCN(C[C@@H]3Cc4cc(Cl)ccc4CN3C(=O)C3CC3)CC2)cc1Oc1cnc2[nH]ccc2c1 [Compound 42, 4-[4-[[(3S)-6-chloro-2-(cyclopropanecarbonyl)-3,4-dihydro-1H-isoquinolin-3-yl]methyl]piperazin-1-yl]-N-[3-nitro-4-(tetrahydropyran-4-ylmethylamino)phenyl]sulfonyl-2-(1H-pyrrolo[2,3-b]pyridin-5-yloxy)benzamide]	> 200 nM	2000 to 10000 nM	> 25000 nM		
> 250 nM	10 to 50 nM		O=C(NS(=O)(=O)c1ccc(NCC2CCOCC2)c([N+](=O)[O-])c1)c1ccc(N2CCC(CN3CCCCC3c3ccc(Cl)cc3)CC2)cc1Oc1cnc2[nH]ccc2c1 (stereo not drawn) [Compound 47, 4-[4-[[2-(4-chlorophenyl)-1-piperidyl]methyl]-1-piperidyl]-N-[3-nitro-4-(tetrahydropyran-4-ylmethylamino)phenyl]sulfonyl-2-(1H-pyrrolo[2,3-b]pyridin-5-yloxy)benzamide]	> 200 nM	2000 to 10000 nM	10000 to 25000 nM		
	10 to 50 nM	2000 to 4000 nM	C[C@]1(O)CC[C@H](CN2CCN(c3ccc(C(=O)NS(=O)(=O)c4ccc(NCC5CCOCC5)c([N+](=O)[O-])c4)c(Oc4cnc5[nH]ccc5c4)c3)CC2)[C@@H](c2ccc(Cl)cc2)C1 [Compound 74, 4-[4-[[(1S,2S,4S)-2-(4-chlorophenyl)-4-hydroxy-4-methyl-cyclohexyl]methyl]piperazin-1-yl]-N-[3-nitro-4-(tetrahydropyran-4-ylmethylamino)phenyl]sulfonyl-2-(1H-pyrrolo[2,3-b]pyridin-5-yloxy)benzamide]	> 200 nM	2000 to 10000 nM	10000 to 25000 nM		
	> 50 nM	> 4000 nM	O=C(NS(=O)(=O)c1ccc(NCC2CCOCC2)c([N+](=O)[O-])c1)c1ccc(N2CCN(C[C@H]3[C@H](c4ccc(Cl)cc4)[C@@H]4C=C[C@H]3C4)CC2)cc1Oc1cnc2[nH]ccc2c1 [Compound 68, 4-[4-[[(1R,2R,3R,4S)-3-(4-chlorophenyl)-2-bicyclo[2.2.1]hept-5-enyl]methyl]piperazin-1-yl]-N-[3-nitro-4-(tetrahydropyran-4-ylmethylamino)phenyl]sulfonyl-2-(1H-pyrrolo[2,3-b]pyridin-5-yloxy)benzamide]	> 200 nM	2000 to 10000 nM	10000 to 25000 nM		
100 to 250 nM			CC1=CC[C@H](CN2CCN(c3ccc(C(=O)NS(=O)(=O)c4ccc(NCC5CCOCC5)c([N+](=O)[O-])c4)c(Oc4cnc5[nH]ccc5c4)c3)CC2)[C@@H](c2ccc(Cl)cc2)C1 [Compound 31, 4-[4-[[(1S,6S)-6-(4-chlorophenyl)-4-methyl-cyclohex-3-en-1-yl]methyl]piperazin-1-yl]-N-[3-nitro-4-(tetrahydropyran-4-ylmethylamino)phenyl]sulfonyl-2-(1H-pyrrolo[2,3-b]pyridin-5-yloxy)benzamide]	100 to 200 nM	2000 to 10000 nM	10000 to 25000 nM		
> 250 nM	10 to 50 nM		O=C(NS(=O)(=O)c1ccc(NCC2CCOCC2)c([N+](=O)[O-])c1)c1ccc(N2CCN(CC3CCC=CC3c3ccc(Cl)cc3)CC2)cc1Oc1cnc2[nH]ccc2c1 (stereo not drawn) [Compound 67, 4-[4-[[2-(4-chlorophenyl)cyclohex-3-en-1-yl]methyl]piperazin-1-yl]-N-[3-nitro-4-(tetrahydropyran-4-ylmethylamino)phenyl]sulfonyl-2-(1H-pyrrolo[2,3-b]pyridin-5-yloxy)benzamide]					
